Measurements: article PMC11087051, “Large-scale deorphanization of Nematostella vectensis neuropeptide G protein-coupled receptors supports the independent expansion of bilaterian and cnidarian peptidergic systems” (eLife, 2024)
Residues, ends and D or L forms follow the SMILES beside them.

Assay: Maximal solubility of the synthetic peptides in water and in DMSO (sheet Peptide_mixes)
Assay type: physicochemical
Settings: for max solve (DMSO): in DMSO, number in brackets in the cell; for max solve water: in water, number before the bracket in the cell
Description: Supplement elife-90674-supp3.xlsx, sheet "Peptide_mixes"

Q: Which “max solve (DMSO)” value does the source give for `CC(C)C[C@H](NC(=O)CNC(=O)[C@@H]1CCCN1C(=O)[C@@H]1CCCN1C(=O)[C@@H](N)CS)C(=O)N[C@@H](Cc1c[nH]c2ccccc12)C(=O)N[C@@H](CS)C(N)=O` [Am_CCa] (H-CPPGLWC-NH2) here?
A: 10 mg/mL

Q: What about the max solve water of the same compound?
A: 5 mg/mL

Q: With `CC(C)C[C@H](NC(=O)[C@H](CO)NC(=O)[C@H](CCC(=O)O)NC(=O)CNC(=O)[C@H](CC(=O)O)NC(=O)[C@@H](NC(=O)[C@H](CCC(=O)O)NC(=O)[C@@H]1CCC(=O)N1)[C@@H](C)O)C(=O)N[C@@H](CCCCN)C(=O)N[C@@H](CCCCN)C(=O)N[C@@H](C)C(=O)N[C@@H](CCC(=O)O)C(=O)N[C@@H](CCC(=O)O)C(=O)N[C@@H](CCC(=O)O)C(=O)N[C@@H](Cc1ccccc1)C(=O)N[C@H](C(=O)O)C(C)C` [EFV] (HELM PEPTIDE1{[Glp].E.T.D.G.E.S.L.K.K.A.E.E.E.F.V}$$$$V2.0) as the compound, how does the “max solve (DMSO)” value read?
A: 10 mg/mL

Q: What about the max solve water of the same compound?
A: 5 mg/mL

Q: For `C[C@H](NC(=O)[C@H](CCCCN)NC(=O)[C@H](Cc1ccccc1)NC(=O)[C@@H](N)Cc1ccccc1)C(N)=O` [FFKAa] (H-FFKA-NH2), which “max solve (DMSO)” value is on record?
A: 10 (10) mg/ml

Q: What about the max solve water of the same compound?
A: 10 (10) mg/ml

Q: Which “max solve (DMSO)” value does the source give for `CC(C)C[C@H](NC(=O)[C@@H](N)Cc1ccccc1)C(=O)N[C@@H](CCCNC(=N)N)C(=O)N[C@@H](CC(N)=O)C(N)=O` [FLRNa] (H-FLRN-NH2) here?
A: 10 (10) mg/ml

Q: What about the max solve water of the same compound?
A: 10 (10) mg/ml

Q: For `CSCC[C@H](NC(=O)[C@H](CC(C)C)NC(=O)CNC(=O)[C@@H]1CCC(=O)N1)C(=O)N[C@@H](Cc1ccccc1)C(=O)N[C@@H](CCCNC(=N)N)C(=O)N1CCC[C@H]1C(N)=O` [FRPa2] (HELM PEPTIDE1{[Glp].G.L.M.F.R.P.[am]}$$$$V2.0), which “max solve (DMSO)” value is on record?
A: 10 mg/mL

Q: What about the max solve water of the same compound?
A: 5 mg/mL

Q: What does the source list for `CC(C)C[C@H](NC(=O)[C@@H]1CCC(=O)N1)C(=O)N[C@@H](Cc1ccccc1)C(=O)N[C@@H](CCCNC(=N)N)C(=O)N1CCC[C@H]1C(N)=O` [FRPa4] (HELM PEPTIDE1{[Glp].L.F.R.P.[am]}$$$$V2.0)?
A: max solve (DMSO): 10 (10) mg/ml; max solve water: 10 (10) mg/ml

Q: With `CC[C@H](C)[C@H](NC(=O)[C@H](CC(C)C)NC(=O)[C@@H]1CCC(=O)N1)C(=O)N[C@@H](Cc1ccccc1)C(=O)N[C@@H](CCCNC(=N)N)C(=O)N1CCC[C@H]1C(N)=O` [FRPa] (HELM PEPTIDE1{[Glp].L.I.F.R.P.[am]}$$$$V2.0) as the compound, how does the “max solve (DMSO)” value read?
A: 10 mg/mL

Q: And the max solve water?
A: 5 mg/mL

Q: For `CC(C)[C@H](NC(=O)[C@H](CCCNC(=N)N)NC(=O)[C@H](Cc1ccc(O)cc1)NC(=O)[C@@H](N)Cc1ccccc1)C(N)=O` [FYRVa] (H-FYRV-NH2), which “max solve (DMSO)” value is on record?
A: 10 mg/mL

Q: And the max solve water?
A: 2 mg/mL

Q: What does the source list for `CC(C)C[C@H](NC(=O)CNC(=O)[C@@H]1CCCN1C(=O)[C@@H]1CCCN1C(=O)[C@H](CS)NC(=O)[C@@H]1CCC(=O)N1)C(=O)N[C@@H](Cc1c[nH]c2ccccc12)C(=O)NCC(=O)N[C@@H](CS)C(=O)O` [GLWG] (HELM PEPTIDE1{[Glp].C.P.P.G.L.W.G.C}$$$$V2.0)?
A: max solve (DMSO): 10 (10) mg/ml; max solve water: 10 (10) mg/ml

Q: What does the source list for `CC(C)C[C@@H]1NC(=O)CNC(=O)[C@@H]2CCCN2C(=O)[C@@H]2CCCN2C(=O)[C@@H](NC(=O)[C@@H]2CCC(=O)N2)CSSC[C@@H](C(=O)O)NC(=O)CNC(=O)[C@H](Cc2c[nH]c3ccccc23)NC1=O` [GLWGcc] (HELM PEPTIDE1{[Glp].C.P.P.G.L.W.G.C}$PEPTIDE1,PEPTIDE1,2:R3-9:R3$$$V2.0)?
A: max solve (DMSO): 10 mg/mL; max solve water: 2 mg/mL

Q: What does the source list for `CC(C)C[C@H](NC(=O)[C@H](CCCNC(=N)N)NC(=O)[C@@H](NC(=O)[C@H](CC(N)=O)NC(=O)[C@H](C)NC(=O)[C@H](CCCCN)NC(=O)[C@H](CS)NC(=O)[C@H](CC(C)C)NC(=O)[C@H](Cc1c[nH]c2ccccc12)NC(=O)[C@H](CC(C)C)NC(=O)CNC(=O)[C@@H]1CCCN1C(=O)[C@@H]1CCCN1C(=O)[C@H](CS)NC(=O)[C@H](Cc1c[nH]cn1)NC(=O)CNC(=O)[C@H](CC(N)=O)NC(=O)[C@@H]1CCC(=O)N1)[C@@H](C)O)C(=O)O` [GLWL] (HELM PEPTIDE1{[Glp].N.G.H.C.P.P.G.L.W.L.C.K.A.N.T.R.L}$$$$V2.0)?
A: max solve (DMSO): 10 mg/mL; max solve water: 5 mg/mL

Q: For `CC(C)C[C@H](NC(=O)[C@H](CCCNC(=N)N)NC(=O)[C@@H](NC(=O)[C@H](CC(N)=O)NC(=O)[C@H](C)NC(=O)[C@H](CCCCN)NC(=O)[C@@H]1CSSC[C@H](NC(=O)[C@H](Cc2c[nH]cn2)NC(=O)CNC(=O)[C@H](CC(N)=O)NC(=O)[C@@H]2CCC(=O)N2)C(=O)N2CCC[C@H]2C(=O)N2CCC[C@H]2C(=O)NCC(=O)N[C@@H](CC(C)C)C(=O)N[C@@H](Cc2c[nH]c3ccccc23)C(=O)N[C@@H](CC(C)C)C(=O)N1)[C@@H](C)O)C(=O)O` [GLWLcc] (HELM PEPTIDE1{[Glp].N.G.H.C.P.P.G.L.W.L.C.K.A.N.T.R.L}$PEPTIDE1,PEPTIDE1,5:R3-12:R3$$$V2.0), which “max solve (DMSO)” value is on record?
A: 5 (5) mg/ml

Q: And the max solve water?
A: 5 (5) mg/ml

Q: For `CC(C)C[C@H](NC(=O)CNC(=O)[C@@H]1CCCN1C(=O)[C@H](C)NC(=O)CNC(=O)[C@H](C)NC(=O)[C@@H]1CCC(=O)N1)C(=O)N[C@@H](Cc1c[nH]c2ccccc12)C(N)=O` [GLWa1] (HELM PEPTIDE1{[Glp].A.G.A.P.G.L.W.[am]}$$$$V2.0), which “max solve (DMSO)” value is on record?
A: 10 mg/mL

Q: What about the max solve water of the same compound?
A: 5 mg/mL

Q: Which results are given for `CC(C)C[C@H](NC(=O)CNC(=O)[C@@H]1CCCN1C(=O)[C@@H]1CCCN1C(=O)CNC(=O)[C@H](C)NC(=O)[C@@H]1CCC(=O)N1)C(=O)N[C@@H](Cc1c[nH]c2ccccc12)C(N)=O` [GLWa2] (HELM PEPTIDE1{[Glp].A.G.P.P.G.L.W.[am]}$$$$V2.0)?
A: max solve (DMSO): 10 (10) mg/ml; max solve water: 10 (10) mg/ml

Q: Which “max solve (DMSO)” value does the source give for `CSCC[C@H](NC(=O)[C@H](C)NC(=O)[C@@H]1CCC(=O)N1)C(=O)N[C@@H](CCC(N)=O)C(=O)N[C@@H](Cc1c[nH]c2ccccc12)C(=O)NCC(=O)N[C@@H](Cc1c[nH]cn1)C(=O)N[C@@H](CCCCN)C(=O)NCC(=O)N[C@@H](Cc1c[nH]c2ccccc12)C(=O)N[C@@H](C)C(=O)O` [GWA1] (HELM PEPTIDE1{[Glp].A.M.Q.W.G.H.K.G.W.A}$$$$V2.0) here?
A: 10 mg/mL

Q: What about the max solve water of the same compound?
A: 0 mg/mL

Q: Which results are given for `CC[C@H](C)[C@H](NC(=O)[C@H](Cc1c[nH]cn1)NC(=O)[C@H](Cc1ccccc1)NC(=O)[C@H](Cc1ccccc1)NC(=O)[C@H](CO)NC(=O)[C@@H]1CCCN1C(=O)[C@H](CCC(=O)O)NC(=O)CNC(=O)[C@H](CC(C)C)NC(=O)[C@H](CC(=O)O)NC(=O)[C@H](CC(C)C)NC(=O)[C@H](Cc1ccc(O)cc1)NC(=O)[C@@H]1CCCN1C(=O)[C@@H]1CCCN1C(=O)[C@@H]1CCC(=O)N1)C(=O)N[C@@H](CCCNC(=N)N)C(N)=O` [HIRa1] (HELM PEPTIDE1{[Glp].P.P.Y.L.D.L.G.E.P.S.F.F.H.I.R.[am]}$$$$V2.0)?
A: max solve (DMSO): 10 (10) mg/ml; max solve water: 10 (10) mg/ml

Q: For `CC[C@H](C)[C@H](NC(=O)[C@H](Cc1c[nH]cn1)NC(=O)[C@H](Cc1ccccc1)NC(=O)[C@H](Cc1ccc(O)cc1)NC(=O)[C@H](C)NC(=O)[C@@H]1CCCN1C(=O)[C@@H](NC(=O)[C@H](CC(C)C)NC(=O)[C@H](CC(=O)O)NC(=O)[C@H](CC(C)C)NC(=O)[C@H](Cc1ccc(O)cc1)NC(=O)[C@@H]1CCCN1C(=O)[C@@H]1CCCN1C(=O)[C@@H]1CCC(=O)N1)[C@@H](C)O)C(=O)N[C@@H](CCCNC(=N)N)C(N)=O` [HIRa3] (HELM PEPTIDE1{[Glp].P.P.Y.L.D.L.T.P.A.Y.F.H.I.R.[am]}$$$$V2.0), which “max solve (DMSO)” value is on record?
A: 10 mg/mL

Q: And the max solve water?
A: 5 mg/mL

Q: What does the source list for `CC[C@H](C)[C@H](NC(=O)[C@H](Cc1c[nH]cn1)NC(=O)[C@H](Cc1ccccc1)NC(=O)[C@H](Cc1ccc(O)cc1)NC(=O)[C@H](C)NC(=O)[C@@H]1CCCN1C(=O)CNC(=O)[C@H](CC(C)C)NC(=O)[C@H](CC(=O)O)NC(=O)[C@H](CC(C)C)NC(=O)[C@@H]1CCCN1C(=O)[C@@H]1CCCN1C(=O)[C@@H]1CCC(=O)N1)C(=O)N[C@@H](CCCNC(=N)N)C(N)=O` [HIRa4] (HELM PEPTIDE1{[Glp].P.P.L.D.L.G.P.A.Y.F.H.I.R.[am]}$$$$V2.0)?
A: max solve (DMSO): 10 mg/mL; max solve water: 5 mg/mL

Q: With `CC(C)C[C@H](NC(=O)[C@H](Cc1c[nH]cn1)NC(=O)[C@H](CO)NC(=O)[C@H](CC(C)C)NC(=O)[C@@H]1CCCN1C(=O)[C@@H]1CCCN1C(=O)[C@@H]1CCC(=O)N1)C(=O)N[C@@H](CO)C(N)=O` [HLSa] (HELM PEPTIDE1{[Glp].P.P.L.S.H.L.S.[am]}$$$$V2.0) as the compound, how does the “max solve (DMSO)” value read?
A: 5 mg/mL

Q: What about the max solve water of the same compound?
A: 0 mg/mL

Q: Which results are given for `CC(C)C[C@H](NC(=O)[C@H](CO)NC(=O)[C@H](C)NC(=O)[C@@H](NC(=O)[C@H](CC(=O)O)NC(=O)[C@H](CC(N)=O)NC(=O)[C@H](CCC(=O)O)NC(=O)[C@H](CO)NC(=O)[C@@H](NC(=O)[C@H](CCC(=O)O)NC(=O)[C@H](CO)NC(=O)[C@@H](NC(=O)[C@H](CO)NC(=O)[C@@H]1CCCN1C(=O)[C@H](CC(C)C)NC(=O)[C@@H]1CCC(=O)N1)C(C)C)C(C)C)C(C)C)C(=O)N[C@@H](CC(C)C)C(=O)N[C@@H](CCCNC(=N)N)C(=O)N[C@@H](CCC(=O)O)C(=O)O` [LRE] (HELM PEPTIDE1{[Glp].L.P.S.V.S.E.V.S.E.N.D.V.A.S.L.L.R.E}$$$$V2.0)?
A: max solve (DMSO): 5 mg/mL; max solve water: 0 mg/mL

Q: With `CC(C)C[C@H](NC(=O)CNC(=O)[C@@H]1CCC(=O)N1)C(=O)N[C@@H](CCCNC(=N)N)C(=O)N[C@@H](Cc1c[nH]c2ccccc12)C(N)=O` [LRWa1] (HELM PEPTIDE1{[Glp].G.L.R.W.[am]}$$$$V2.0) as the compound, how does the “max solve (DMSO)” value read?
A: 5 mg/mL

Q: What about the max solve water of the same compound?
A: 0 mg/mL

Q: With `CC(C)C[C@H](NC(=O)CNC(=O)CNC(=O)[C@@H]1CCC(=O)N1)C(=O)N[C@@H](CCCNC(=N)N)C(=O)N[C@@H](Cc1c[nH]c2ccccc12)C(N)=O` [LRWa2] (HELM PEPTIDE1{[Glp].G.G.L.R.W.[am]}$$$$V2.0) as the compound, how does the “max solve (DMSO)” value read?
A: 10 mg/mL

Q: What about the max solve water of the same compound?
A: 5 mg/mL
